Key:
[1] = target: T1, α-glucosidase (Saccharomyces cerevisiae, UniProt P53341); experiment: fluorescence quenching of α-glucosidase (Stern–Volmer); type: binding
Excerpt: The mixture was scanned using fluorescence spectroscopy (SpectraMax i3x, Molecular Devices, LLC., San Jose, CA, USA). The excitation wavelength was set at 280 nm, and the emission wavelength at 300–500 nm, with excitation and emission slit widths of 5 nm. Then, the following Stern–Volmer dynamic collision quenching equations were applied to calculate the fluorescence quenching parameters, including the quenching constants (KSV), quenching rate constant (Kq), binding constant (Ka), and binding site number (n). The equations are described below:(2) F0/F=1+KSV[Q]=1+Kqτ0[Q] (3) lgF0−F/F=lgKa+nlg[Q]

[2] = target: T1, α-glucosidase; experiment: FT-IR secondary structure of α-glucosidase (amide I curve fitting); details: astragalin 100 µg/mL
Excerpt: The secondary conformation of α-glucosidase (1 U/mL) with or without sample treatment were detected with a Fourier transform infrared spectrometer (FT-IR) (VERTEX 7.0, BRUKER Co., Ltd., Bremen, Germany), by fitting the infrared amide type I curve (1600–1700 cm^−1).

[3] = tested on: HepG2 cells; experiment: HepG2 cell survival rate (CCK-8); type: cell-based, human; details: 0–200 µg/mL, 24 h
Procedure: (§1) HepG2 cells at 10 to 40 generations were configured at a concentration of 4 × 10^5/mL. The cells suspension 100 µL was inoculated into a culture plate with DMEM (10 mL) containing glucose 4.5 g/L, 10% FBS, penicillin (1000 U/mL), and streptomycin ([…]), and cultivated in a 37 °C, 5% CO2 incubator.
Each sample was added to a 96-well plate with HepG2 cells and incubated in a 37 °C, 5% CO2 incubator for 24 h. After washing twice with PBS, the CCK-8 solution 100 µL was added, and incubated for another 4 h. The absorbance at 450 nm was measured using a Microplate reader (Bio TekGen5, BioTech Instruments, Co., Ltd., Winooski, VT, USA). The cells’ survival rates were calculated based on the formula as shown below:Cell survival rate (%) = A samples/A black control × 100%(5)

[4] = tested on: high-glucose HepG2 cells; experiment: high-glucose (insulin-resistant) HepG2 model: glucose, TC, TG; type: cell-based, human; details: for hypoglycemic effect (glucose level) compared between concentrations: 80 µg/mL, superior to acarbose positive control 5 µg/mL
Procedure: as §1
When the cells were increased to about 80%, insulin at a concentration of 10^−5 mmol/L was treated for 24 h to induce the formation of insulin-resistant cells. […] After the treatment of 24 h with different samples, the glucose, TC, and TG content in the HepG2 cell supernatant was measured with glucose, TC, and TG assay kits.

[5] = tested on: AMPK signaling pathway (p-AMPK, ACC, GLUT4); experiment: Western blotting of AMPK pathway proteins in high-glucose HepG2 cells; type: cell-based, human
Procedure: Protein samples of 20 µg were separated by sodium dodecyl sulfate polyacrylamide gel electrophoresis in the Bio-Rad electrophoresis apparatus (Liuyi Biotechnology Co., Ltd., Beijing, China), and then transferred to polyvinylidene fluoride membranes. The electrophoretic proteins were sealed with 5% skimmed milk at room temperature for 1 h, and the membranes were incubated overnight with primary antibodies, including AMPK, phospho-AMPK (p-AMPK), acetyl CoA carboxylase (ACC, EC 6.4.1.2), and glucose transporter 4 (GLUT4) at 4 °C. After washing the membrane with phosphate-buffered saline tween-20, the membranes were incubated with secondary antibodies at room temperature for 1 h.

[6] = tested on: streptozocin-induced diabetic mice; set-up: method as in PMID 27687881; details: cited from earlier work
[7] = tested on: Müller cells; details: high glucose; cited from earlier work
[8] = target: T1, α-glucosidase; details: reported compound; cited from earlier work
[9] = different concentrations, high-glucose HepG2 cells

T1 sequence (P53341 whole entry): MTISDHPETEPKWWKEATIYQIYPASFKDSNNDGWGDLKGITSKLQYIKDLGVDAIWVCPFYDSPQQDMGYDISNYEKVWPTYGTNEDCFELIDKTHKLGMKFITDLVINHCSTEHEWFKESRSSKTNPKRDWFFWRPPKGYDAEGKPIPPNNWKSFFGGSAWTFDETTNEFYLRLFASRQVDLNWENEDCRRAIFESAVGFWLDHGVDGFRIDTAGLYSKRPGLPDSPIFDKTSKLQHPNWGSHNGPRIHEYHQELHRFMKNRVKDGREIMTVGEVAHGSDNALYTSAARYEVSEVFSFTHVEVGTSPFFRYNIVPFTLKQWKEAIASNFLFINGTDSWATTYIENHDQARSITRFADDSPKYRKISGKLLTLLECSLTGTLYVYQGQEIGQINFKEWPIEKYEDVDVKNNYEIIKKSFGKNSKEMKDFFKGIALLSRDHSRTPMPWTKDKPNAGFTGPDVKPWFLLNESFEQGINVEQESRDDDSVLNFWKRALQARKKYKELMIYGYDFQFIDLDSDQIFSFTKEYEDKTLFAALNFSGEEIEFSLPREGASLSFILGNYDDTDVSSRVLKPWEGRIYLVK

O=c1c(O[C@@H]2O[C@H](CO)[C@@H](O)[C@H](O)[C@H]2O)c(-c2ccc(O)cc2)oc2cc(O)cc(O)c12 [astragalin, kaempferol-3-O-β-D-glucopyranoside]
KSV (quenching constant) ([1]; 298 K): 9.093 ×10^3 Lmol^−1
n (binding site number) ([1]; 298 K): 1.238
KSV (quenching constant) ([1]; 304 K): 7.903 ×10^3 Lmol^−1
n (binding site number) ([1]; 304 K): 1.1905
KSV (quenching constant) ([1]; 310 K): 7.061 ×10^3 Lmol^−1
n (binding site number) ([1]; 310 K): 0.8446
maximum fluorescence emission wavelength of α-glucosidase with astragalin ([1]; free enzyme around 346 nm, excitation 280 nm, 298 K): 349 nm
Kq values ([1]; under three temperature conditions, compared with maximum diffusion collision quenching constant): higher than 2.0 × 10^10 Lmol^−1 s^−1
β-turn content of α-glucosidase with astragalin ([2]; without astragalin 11.72%): 19.30%
β-sheet content of α-glucosidase with astragalin ([2]; without astragalin 11.94%): 4.71%
random coil content of α-glucosidase with astragalin ([2]; without astragalin 21.08%): 38.79%
CCK-8 cell survival [3]: within the safe range
hypoglycemic effect (glucose level) compared between concentrations [4]: the activity was the strongest
hypoglycemic effect (glucose level) compared between concentrations ([4]; listed as Astragalin): best hypoglycemic effect
glucose level in the cells ([4]; 20, 80, and 200 µg/mL, 24 h, insulin-induced high-glucose HepG2): reduced the glucose level in the cells
TC level [4, 9]: reduced the levels of TC
TG level [4, 9]: reduced the levels of TC and TG
GLUT4 protein expression level ([5]; 20 µg/mL): significantly increased
ACC protein expression level ([5]; 80 µg/mL): significantly down-regulated
p-AMPK protein expression level ([5]; 80 and 200 µg/mL): up-regulated
hypoglycemic effects in diabetic mice [6]: improved the glucose tolerance and reduced the level of glucose
vascular endothelial growth factor over-expression [7]: decreased the over-expression

COc1cc(OC)c2c(ccc3cc(OC)c(O)cc32)c1 [batatasin I]
IC50 [8]: 2550 µM

— publication PMC11820219 (Nutrients, 2025)
